Experimental data taken from patent publication US7585859B2, “PDE4B inhibitors and uses therefor” (Plexxikon, Inc., priority 2004, dated 2009).
Read-outs that look alike come from different tables or passages of the source.

How the values were obtained:
[1] = target: T1, PDE4B: The catalytic domain of human PDE4B from S152-S528 (Homo sapiens, UniProt Q07343); test: PDE4 IC50 determination by Scintillation Proximity Assay, PDE4B; assay type: biochemical
T1 construct: His6 (N); thrombin cleavage site (N); made in house; host or cells: E. coli
Summary of the method: (§1)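 Scintillation counts reflected [^3H]AMP captured on yttrium silicate SPA beads after enzyme hydrolysed [^3H]cAMP for 30 min at 30°. PDE4B was used at 80 ng/ml and PDE4D at 4 ng/ml. IC50 values came from non-linear regression.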

PDE4D = target: T2, PDE4D (Homo sapiens, UniProt Q08499); test: PDE4 IC50 determination by Scintillation Proximity Assay, PDE4D; assay type: biochemical
T2 construct: PDE4D: The catalytic domain of human PDE4B from S3 16-V692; His6 (N); thrombin cleavage site (N); made in house; host or cells: E. coli
Summary of the method: as §1

[2] = target: T3, full-length human PDE4B2 isozyme (Homo sapiens, UniProt Q07343); test: PDE4 IC50 determination by Scintillation Proximity Assay, PDE4B2; assay type: biochemical
T3 construct: The full-length human PDE4B2 isozyme; His6 (N); TEV cleavage site (N); made in house; host or cells: baculovirus infected insect cells (unpurified lysate)
Summary of the method: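 Unpurified His6-TEV-tagged full-length human PDE4B2 from baculovirus-infected insect cell lysate (2.5 μl of 50% glycerol stock/ml) hydrolysed [3H]cAMP in 50 mM Tris pH 7.5, 8.3 mM MgCl, 1.7 mM EGTA, 0.01% BSA for 30 min at 30°. Stopped with SPA beads in 18 mM ZnSO4; [3H]AMP scintillation counted, IC50 by non-linear regression.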

[3] = target: T4, full-length human PDE4D5 isozyme (Homo sapiens, UniProt Q08499); test: PDE4 IC50 determination by Scintillation Proximity Assay, PDE4D5; assay type: biochemical
T4 construct: The full-length human PDE4D5 isozyme; His6 (N); TEV cleavage site (N); made in house; host or cells: baculovirus infected insect cells (unpurified lysate)
Summary of the method: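 Unpurified His6-tagged full-length human PDE4D5 from baculovirus-infected insect cell lysate, 0.083 μl glycerol stock/ml, hydrolysed [3H]cAMP in Tris pH 7.5/MgCl/EGTA buffer, 30 min at 30°. ZnSO4/SPA beads stop; [3H]AMP counted. Controls: DMSO and roflumilast; 11-point duplicate curves, nonlinear-regression IC50.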

[4] = test system: TNF alpha production in LPS-stimulated human blood (Buffy coat); test: TNF alpha production by stimulation with LPS in whole blood cultures; assay type: cell-based
Protocol: Compounds were assayed to generate IC50 numbers as described in Example 54, using the following assay protocol (see Tables 3B and 4B for compounds and results).
Protocol • 1) Obtained 20 mM DMSO aliquots of desired concentrations of compounds (see Tables 3B and 4B for compounds tested and results). Placed 2 μl/well compound in DMSO in the top row of the dilution plate. Added 98 μl of RPMI 1640 media w/2.5% heat inactivated FBS.
2) Made the same media with 2% DMSO in it. Added 60 μl/well to well to make compound titration. Took 30 μl of top row and did a 1:3 dilution down the plate. In column 11 added 4 wells of 50 μM roflumilast and piclamilast. In column 12 added 2% DMSO media.
3) Transfered 20 μl/well into assay plates in duplicate.
4) Obtained human Buffy coat.
5) Diluted blood with 7 volumes of RPMI 1640 media with 1% P/S and 2.5% heat inactivated FBS (a 1:8 dilution)
6) Added160 μl/well of diluted blood to the assay plates.
7) Incubated for 1 hour at 37 degrees 5% CO2
8) Diluted LPS (which was already diluted to 1 mg/ml in PBS, 20 μl aliquots frozen −20 C.) to 10× desired final concentration to make a […] dilution (final concentration should be 100 ng/ml).
9) After 1 hour incubation added 20 μl/well of LPS to plates. A non-LPS treated background was also prepared. Samples were put on the shaker for a one minute 900 rpm.
10) Incubated for 4 hours in incubator.
11) After incubation, put on the shaker for a one minute 900 rpm and spun plate at 100 g for 10 minutes, Decel 5.
12) Carefully pipetted the top 75 μl supernatant into a new plate. Samples were frozen as needed.
Biosource hu-TNF ALPHA ELISA
• REAGENTS USED • DPBS 10×: VWR45000-428 (dilute 1:10 with Millipore Water) • TWEEN 20: FISHER BP337-500 • CAPTURE AND DETECTION ANTIBODIES: R&D DY510E • STREP-HRP: Biosource part SNN4004X • COLOR REAGENTS: R&D DY994 • STOP SOLUTION: from chemistry, or R&D DY999 • 1) Thawed samples to RT as needed. • 2) Added 50 μl Incubation buffer/well. • 3) Added 50 μl blood samples +50 μl Diluent buffer • 4) Incubated 2 hours at room temp. • 5) Washed the plate 4× with 300 μl/well wash buffer with microfill. Wash buffer was DPBS with 0.05% Tween pH 7.2-7.4 • 6) Added 100 μl biotinylated anti-TNFalpha • 7) Incubateed 1 hours at room temp. • 8) Washed the plate 4× with 300 μl/well wash buffer with microfill. Wash buffer was DPBS with 0.05% Tween pH 7.2-7.4 • 9) Added^100 μl Streptavidin-HRP working solution • 10) Incubated for 30 minutes at room temp. • 11) Washed the plate 4× with 300 μl/well wash buffer with microfill. Wash buffer was DPBS with 0.05% Tween pH 7.2-7.4 • 12) Added 100 μl Chromagen • 13) Incubated in the dark for 30 minutes until the blue color developed satisfactorily. • 14) Added 100 μl/well stop solution (2 N H2SO4). • 15) Read plate on WallacVictor at 450 nm for 0.1 sec/well

[5] = Table 1B, Formula I compounds, read-out: IC50 PDE4B
[6] = Table 1B, Formula I compounds, read-out: IC50 PDE4D
[7] = Table 1B, Formula I compounds, read-out: IC50 PDE4B2
[8] = Table 1B, Formula I compounds, read-out: IC50 PDE4D5
[9] = Homo sapiens, Table 1B, Formula I compounds, read-out: IC50 h TNFα
[10] = human whole blood, LPS 100 ng/ml, read-out: IC 50 vs. indicated assay h TNFα
[11] = second part of Table 2B (2-23 to 2-103), column 3, column is PDE4B in first part, read-out: IC 50 vs. indicated assay h TNFα
[12] = second part of Table 2B (2-23 to 2-103), column 5, column is PDE4D in first part, read-out: IC 50 vs. indicated assay h TNFα
[13] = second part of Table 2B (2-23 to 2-103), column 4, column is PDE4B2 in first part, read-out: IC 50 vs. indicated assay h TNFα

T1 sequence (Q07343 with tags, fused parts or gaps): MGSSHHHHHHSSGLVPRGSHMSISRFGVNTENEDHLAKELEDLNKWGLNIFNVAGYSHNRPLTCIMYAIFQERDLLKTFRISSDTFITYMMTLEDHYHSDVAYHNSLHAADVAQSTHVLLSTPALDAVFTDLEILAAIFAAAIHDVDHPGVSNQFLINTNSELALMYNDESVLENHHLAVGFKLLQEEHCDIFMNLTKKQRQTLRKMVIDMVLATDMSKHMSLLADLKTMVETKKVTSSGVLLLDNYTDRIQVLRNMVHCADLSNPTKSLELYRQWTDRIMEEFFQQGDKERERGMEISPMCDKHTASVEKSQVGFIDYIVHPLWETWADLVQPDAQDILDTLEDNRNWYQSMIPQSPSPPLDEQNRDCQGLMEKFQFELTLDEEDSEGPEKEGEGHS
T3 sequence (Q07343 1-564 isoform Q07343-2): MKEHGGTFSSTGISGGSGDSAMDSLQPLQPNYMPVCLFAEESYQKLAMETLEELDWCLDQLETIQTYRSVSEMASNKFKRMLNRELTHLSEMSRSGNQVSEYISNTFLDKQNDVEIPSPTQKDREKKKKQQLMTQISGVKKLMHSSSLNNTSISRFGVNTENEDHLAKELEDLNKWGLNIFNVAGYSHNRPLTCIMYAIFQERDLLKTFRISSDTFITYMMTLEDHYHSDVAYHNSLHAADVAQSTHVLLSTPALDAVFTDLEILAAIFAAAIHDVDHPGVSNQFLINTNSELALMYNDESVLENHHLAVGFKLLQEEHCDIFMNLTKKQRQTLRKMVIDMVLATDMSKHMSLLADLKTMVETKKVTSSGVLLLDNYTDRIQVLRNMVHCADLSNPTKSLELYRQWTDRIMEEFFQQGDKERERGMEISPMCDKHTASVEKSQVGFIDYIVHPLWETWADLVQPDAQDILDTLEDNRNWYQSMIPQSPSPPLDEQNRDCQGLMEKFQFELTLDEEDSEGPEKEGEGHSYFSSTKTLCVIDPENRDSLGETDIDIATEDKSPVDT
T4 sequence (Q08499 1-745 isoform Q08499-6): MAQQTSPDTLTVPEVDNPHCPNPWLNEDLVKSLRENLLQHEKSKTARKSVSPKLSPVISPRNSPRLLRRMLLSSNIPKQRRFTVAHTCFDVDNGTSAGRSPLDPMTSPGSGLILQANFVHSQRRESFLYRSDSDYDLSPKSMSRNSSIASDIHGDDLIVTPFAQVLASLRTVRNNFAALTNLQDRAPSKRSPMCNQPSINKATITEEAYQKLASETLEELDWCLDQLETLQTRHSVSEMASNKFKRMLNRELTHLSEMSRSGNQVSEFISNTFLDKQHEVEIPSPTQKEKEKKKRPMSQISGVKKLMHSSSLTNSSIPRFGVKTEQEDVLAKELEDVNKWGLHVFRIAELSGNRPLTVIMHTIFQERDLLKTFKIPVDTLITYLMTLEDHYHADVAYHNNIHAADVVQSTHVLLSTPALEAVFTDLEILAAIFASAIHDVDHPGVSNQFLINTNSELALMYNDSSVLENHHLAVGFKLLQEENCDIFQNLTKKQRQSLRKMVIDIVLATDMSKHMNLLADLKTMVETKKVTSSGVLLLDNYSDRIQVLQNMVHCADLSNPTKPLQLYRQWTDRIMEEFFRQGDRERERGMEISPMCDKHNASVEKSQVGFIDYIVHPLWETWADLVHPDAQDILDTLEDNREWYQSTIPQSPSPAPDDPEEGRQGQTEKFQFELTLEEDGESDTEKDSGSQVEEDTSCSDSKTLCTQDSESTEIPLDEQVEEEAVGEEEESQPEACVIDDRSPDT
T2 sequence (Q08499 380-756): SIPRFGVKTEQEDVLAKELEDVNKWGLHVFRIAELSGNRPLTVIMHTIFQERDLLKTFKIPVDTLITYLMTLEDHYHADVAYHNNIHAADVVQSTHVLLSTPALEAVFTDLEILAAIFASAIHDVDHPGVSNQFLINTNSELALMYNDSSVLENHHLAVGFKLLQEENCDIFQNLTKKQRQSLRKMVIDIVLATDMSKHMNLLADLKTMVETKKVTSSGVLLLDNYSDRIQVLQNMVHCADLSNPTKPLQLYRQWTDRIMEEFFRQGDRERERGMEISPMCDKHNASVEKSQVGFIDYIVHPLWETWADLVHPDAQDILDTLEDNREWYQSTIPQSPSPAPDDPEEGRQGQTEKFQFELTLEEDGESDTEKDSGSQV

Row | SMILES | IC50 [1, 5] [µM] | IC50 (PDE4D; [6]) [µM] | IC50 [2, 7] [µM] | IC50 [3, 8] [µM] | IC50 [4, 9] [µM] | IC50 ([1]; first part of Table 2B (2-1 to 2-22), read-out: IC 50 vs. indicated assay PDE4B) [µM] | IC50 ([2]; first part of Table 2B (2-1 to 2-22), read-out: IC 50 vs. indicated assay PDE4B2) [µM] | IC50 ([3]; first part of Table 2B (2-1 to 2-22), read-out: IC 50 vs. indicated assay PDE4D5) [µM] | IC50 [4, 10] [µM] | IC50 [1, 11] [µM] | IC50 (PDE4D; [12]) [µM] | IC50 [2, 13] [µM]
1 | N#Cc1c(Nc2ccccc2)sc(C(=O)c2ccc(Cl)cc2)c1N [Compound 1-20, 4-Amino-5-(4-chloro-benzoyl)-2-phenylamino-thiophene-3-carbonitrile] | < 10 | < 10 | < 10 | < 10 | < 10 |  |  |  |  |  |  | 
2 | COc1ccc(OC)c(C(=O)c2sc(NC3CCCC3)c(C#N)c2N)c1 [Compound 1-40] | < 10 | < 10 | < 10 | < 10 | > 10 |  |  |  |  |  |  | 
3 | COc1ccc(Nc2sc(C(=O)c3ccccc3Cl)c(N)c2C#N)cc1 [Compound 1-110, 4-Amino-5-(2-chloro-benzoyl)-2-(4-methoxy-phenylamino)-thiophene-3-carbonitrile] | < 10 | < 10 | < 10 | < 10 | < 10 |  |  |  |  |  |  | 
4 | CC(C)CNc1sc(C(=O)c2cc(-c3ccccc3)no2)c(N)c1C#N [Compound 1-209, 4-Amino-2-isobutylamino-5-(3-phenyl-isoxazole-5-carbonyl)-thiophene-3-carbonitrile] | < 10 | < 10 | < 10 | < 10 | > 10 |  |  |  |  |  |  | 
5 | Cc1nc(-c2cnccn2)sc1C(=O)c1sc(NC2CCCC2)c(C#N)c1N [Compound 1-219, 4-Amino-2-cyclopentylamino-5-(4-methyl-2-pyrazin-2-yl-thiazole-5-carbonyl)-thiophene-3-carbonitrile] | < 10 | < 10 | < 10 | < 10 | < 10 |  |  |  |  |  |  | 
6 | N#Cc1c(NC2CCCC2)sc(C(=O)c2cc(-c3ccc([N+](=O)[O-])cc3)no2)c1N [Compound 1-220, 4-Amino-2-cyclopentylamino-5-[3-(4-nitro-phenyl)-isoxazole-5-carbonyl]-thiophene-3-carbonitrile] | < 10 | > 10 | < 10 | > 10 | > 10 |  |  |  |  |  |  | 
7 | CCC(C)Nc1sc(C(=O)c2cc(-c3ccccc3)no2)c(N)c1C#N (stereo not drawn) [Compound 1-222, 4-Amino-2-sec-butylamino-5-(3-phenyl-isoxazole-5-carbonyl)-thiophene-3-carbonitrile] | < 10 | < 10 | < 10 | > 10 | > 10 |  |  |  |  |  |  | 
8 | CC(C)C(C)Nc1sc(C(=O)c2cc(-c3ccccc3)no2)c(N)c1C#N (stereo not drawn) [Compound 1-223, 4-Amino-2-(1,2-dimethyl-propylamino)-5-(3-phenyl-isoxazoie-5-carbonyl)-thiophene-3-carbonitrile] | < 10 | > 10 | < 10 | > 10 | > 10 |  |  |  |  |  |  | 
9 | CC(C)Nc1sc(C(=O)c2cc(-c3ccc(Cl)c(Cl)c3)no2)c(N)c1C#N [Compound 1-225] | < 10 | > 10 | < 10 | > 10 | > 10 |  |  |  |  |  |  | 
10 | Cc1c(NC2CCCC2)sc(C(=O)c2cc(-c3ccccc3)no2)c1N [Compound 1-240, (3-Amino-5-cyclopentylamino-4-methyl-thiophen-2-yl)-(3-phenyl-isoxazol-5-yl)-methanone] | < 10 |  | < 10 | < 10 | < 10 |  |  |  |  |  |  | 
11 | CCc1c(NC2CCCC2)sc(C(=O)c2cc(-c3ccccc3)no2)c1N [Compound 1-241, (3-Amino-5-cyclopentylamino-4-ethyl-thiophen-2-yl)-(3-phenyl-isoxazole-5-yl)-methanone] | < 10 |  | < 10 | > 10 | > 10 |  |  |  |  |  |  | 
12 | COc1ccccc1Nc1sc(C(=O)c2cc(-c3ccccc3)no2)c(N)c1C#N [Compound 1-242] | < 10 |  | < 10 | < 10 | < 10 |  |  |  |  |  |  | 
13 | CCC(C)Nc1sc(C(=O)c2cc(-c3ccccc3)no2)c(N)c1C(N)=O (stereo not drawn) [Compound 1-244, 4-Amino-2-sec-butylamino-5-(3-phenyl-isoxazole-5-carbonyl)-thiophene-3-carboxylic acid amide] | < 10 | < 10 | < 10 | < 10 | < 10 |  |  |  |  |  |  | 
14 | CCC(C)Nc1sc(C(=O)c2cc(-c3ccc(Cl)c(Cl)c3)no2)c(N)c1C(N)=O (stereo not drawn) [Compound 1-249, 4-Amino-2-sec butylamino-5-[3-(3,4-dichloro-phenyl)-isoxazole-5-carbonyl]-thiophene-3-carboxylic acid amide] | < 10 | < 10 |  | > 10 | > 10 |  |  |  |  |  |  | 
15 | NC(=O)c1c(N)sc(C(=O)c2cc(-c3ccccc3)no2)c1N [Compound 1-255, 2,4-Diamino-5-(3-phenyl-isoxazole-5-carbonyl)-thiophene-3-carboxylic acid amide] |  |  | > 10 | > 10 | > 10 |  |  |  |  |  |  | 
16 | Nc1nc(NC2CCCC2)sc1C(=O)c1cc(-c2ccccc2)cs1 [Compound 2-19, (4-Amino-2-cyclopentylamino-thiazol-5-yl)-(4-phenyl-thiophen-2yl)-methanone] |  |  |  |  |  | < 10 | < 10 | < 10 | < 10 |  |  | 
17 | Nc1nc(Nc2ccc(C(=O)O)cc2)sc1C(=O)c1ccccc1 [Compound 2-35, 4-(4-Amino-5-benzoyl-thiazol-2-ylamino)-benzoic acid] |  |  |  |  |  |  |  |  | > 10 | < 10 | < 10 | < 10
18 | Nc1nc(NC2CCCC2)sc1C(=O)c1ccc(Oc2ccccc2)cc1 [Compound 2-76, (4-Amino-2-cyclopentylamino-thiazol-5-yl)-(4-phenoxy-phenyl)-methanone] |  |  |  |  |  |  |  |  | > 10 | < 10 | < 10 | < 10
